Read-outs that look alike come from different tables or passages of the source.
What was measured:
[1] = target: GluN2B glutamate receptors (Homo sapiens (Human), UniProt Q05586+Q13224); assay: Whole-cell patch clamp of mammalian cells (Ionworks Barracuda), positive allosteric modulation, GluN2B; format: cell-based; conditions: for Emax: % potentiation of current elicited with EC20 L-glutamate and 30 μM glycine, read-out: Avg Emax 2B (%)
Outline: (§1)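 Perforated-patch whole-cell recording, holding −70 mV, −40 mV during application; Cs-based internal pH 7.2, external with 5 mM CaCl2 pH 7.4. Test article pre-applied alone 5 min, then co-applied with EC20 L-glutamate plus 30 μM glycine. EC50 from Hill fit of % activation over the EC20 current.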

[2] = target: GlunN1/GluN2A glutamate receptors (Homo sapiens (Human), UniProt Q05586+Q12879); assay: Whole-cell patch clamp of mammalian cells (Ionworks Barracuda), positive allosteric modulation, GluN1/GluN2A; format: cell-based; conditions: for Emax: % potentiation of current elicited with EC20 L-glutamate and 30 μM glycine, read-out: Avg Emax 2A (%)
Chain of GlunN1/GluN2A glutamate receptors (Q12879 23-1464, other chains not shown): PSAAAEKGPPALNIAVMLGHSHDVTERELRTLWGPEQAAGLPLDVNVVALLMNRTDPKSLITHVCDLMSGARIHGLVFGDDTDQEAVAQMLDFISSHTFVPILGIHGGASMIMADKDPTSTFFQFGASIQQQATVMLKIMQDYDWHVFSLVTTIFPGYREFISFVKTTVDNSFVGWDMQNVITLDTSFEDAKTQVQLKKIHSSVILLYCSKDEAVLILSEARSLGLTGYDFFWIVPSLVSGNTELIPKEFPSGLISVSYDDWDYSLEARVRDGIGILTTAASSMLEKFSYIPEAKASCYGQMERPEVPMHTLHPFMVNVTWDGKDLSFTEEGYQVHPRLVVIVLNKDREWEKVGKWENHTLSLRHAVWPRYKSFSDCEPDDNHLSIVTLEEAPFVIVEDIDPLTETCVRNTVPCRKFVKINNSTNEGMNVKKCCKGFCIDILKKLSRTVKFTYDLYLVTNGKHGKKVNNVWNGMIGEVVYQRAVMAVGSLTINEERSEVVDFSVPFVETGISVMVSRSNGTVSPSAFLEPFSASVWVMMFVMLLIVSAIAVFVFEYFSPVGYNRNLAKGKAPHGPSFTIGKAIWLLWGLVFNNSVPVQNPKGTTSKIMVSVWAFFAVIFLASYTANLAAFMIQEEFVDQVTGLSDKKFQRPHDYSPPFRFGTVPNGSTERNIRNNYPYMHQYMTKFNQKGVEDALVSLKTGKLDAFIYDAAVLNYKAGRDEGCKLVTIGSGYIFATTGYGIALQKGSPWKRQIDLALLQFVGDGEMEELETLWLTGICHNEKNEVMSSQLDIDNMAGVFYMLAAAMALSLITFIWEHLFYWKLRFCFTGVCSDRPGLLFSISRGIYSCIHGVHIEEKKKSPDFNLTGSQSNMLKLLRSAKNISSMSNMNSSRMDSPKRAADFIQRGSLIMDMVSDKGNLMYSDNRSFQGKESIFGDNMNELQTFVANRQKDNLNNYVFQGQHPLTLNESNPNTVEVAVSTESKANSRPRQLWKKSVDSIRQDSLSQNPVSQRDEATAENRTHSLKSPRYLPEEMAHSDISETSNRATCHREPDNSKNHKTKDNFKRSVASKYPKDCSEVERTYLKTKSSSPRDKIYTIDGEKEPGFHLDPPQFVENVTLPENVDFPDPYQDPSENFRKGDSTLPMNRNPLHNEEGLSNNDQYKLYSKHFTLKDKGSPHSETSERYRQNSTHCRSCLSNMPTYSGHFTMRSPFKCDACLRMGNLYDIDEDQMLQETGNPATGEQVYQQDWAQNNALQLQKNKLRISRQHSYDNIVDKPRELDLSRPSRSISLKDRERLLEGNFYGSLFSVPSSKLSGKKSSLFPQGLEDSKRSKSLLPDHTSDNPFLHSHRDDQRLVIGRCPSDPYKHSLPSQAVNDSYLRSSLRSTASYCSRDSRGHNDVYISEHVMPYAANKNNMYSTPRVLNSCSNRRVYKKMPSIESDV
Outline: as §1

[3] = HEK293 cells, co-application with EC20 L-glutamate and 30 μM glycine, 8-point concentration-response, read-out: Avg EC50 2A

Chain of GluN2B glutamate receptors (Q13224 27-1484, other chains not shown): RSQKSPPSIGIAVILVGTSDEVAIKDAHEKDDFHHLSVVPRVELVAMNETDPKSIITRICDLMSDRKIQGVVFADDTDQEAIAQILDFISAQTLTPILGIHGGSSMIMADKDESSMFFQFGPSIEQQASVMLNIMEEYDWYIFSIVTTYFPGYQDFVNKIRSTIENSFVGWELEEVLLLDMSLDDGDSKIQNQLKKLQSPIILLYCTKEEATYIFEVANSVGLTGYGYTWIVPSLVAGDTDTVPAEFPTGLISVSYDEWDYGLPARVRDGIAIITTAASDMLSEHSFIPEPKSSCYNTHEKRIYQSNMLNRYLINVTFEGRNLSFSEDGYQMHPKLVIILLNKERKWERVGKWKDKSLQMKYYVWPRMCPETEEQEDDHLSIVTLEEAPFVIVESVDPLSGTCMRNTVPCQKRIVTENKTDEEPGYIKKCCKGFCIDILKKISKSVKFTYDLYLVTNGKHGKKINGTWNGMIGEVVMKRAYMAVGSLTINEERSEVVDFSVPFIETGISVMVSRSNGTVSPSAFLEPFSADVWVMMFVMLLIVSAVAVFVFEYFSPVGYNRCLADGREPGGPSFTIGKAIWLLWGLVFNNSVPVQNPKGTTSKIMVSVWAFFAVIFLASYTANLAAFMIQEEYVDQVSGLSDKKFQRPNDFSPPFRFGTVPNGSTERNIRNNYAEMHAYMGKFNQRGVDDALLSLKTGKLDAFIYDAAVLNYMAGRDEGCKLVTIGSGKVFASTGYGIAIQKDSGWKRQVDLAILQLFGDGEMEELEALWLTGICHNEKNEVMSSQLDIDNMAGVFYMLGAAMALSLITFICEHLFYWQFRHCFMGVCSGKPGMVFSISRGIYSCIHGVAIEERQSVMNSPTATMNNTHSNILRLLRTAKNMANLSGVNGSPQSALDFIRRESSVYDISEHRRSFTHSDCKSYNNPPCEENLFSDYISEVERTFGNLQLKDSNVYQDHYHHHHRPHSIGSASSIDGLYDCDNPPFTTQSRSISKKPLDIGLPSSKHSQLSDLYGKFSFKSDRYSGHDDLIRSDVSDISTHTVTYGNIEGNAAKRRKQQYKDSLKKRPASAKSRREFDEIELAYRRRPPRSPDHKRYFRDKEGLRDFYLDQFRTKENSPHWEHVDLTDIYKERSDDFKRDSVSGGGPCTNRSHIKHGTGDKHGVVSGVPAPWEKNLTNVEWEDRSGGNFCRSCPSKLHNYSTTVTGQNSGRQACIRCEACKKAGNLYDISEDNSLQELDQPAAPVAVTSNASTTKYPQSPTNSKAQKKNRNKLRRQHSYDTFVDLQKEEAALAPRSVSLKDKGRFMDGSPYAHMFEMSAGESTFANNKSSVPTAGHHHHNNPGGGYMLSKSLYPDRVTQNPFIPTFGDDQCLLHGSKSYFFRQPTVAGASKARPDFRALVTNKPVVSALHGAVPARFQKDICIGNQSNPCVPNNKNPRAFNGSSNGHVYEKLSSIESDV

Structure (SMILES)	EC50 [1]	EC50 [2]	Emax [1]	Emax ([2]; HEK293 cells)	EC50 [2, 3]	EC50 ([1]; co-application with EC20 L-glutamate and 30 μM glycine, 8-point concentration-response, read-out: Avg EC50 2B)
CC[C@]1(O)CC[C@H]2C(=CC[C@@H]3[C@@H]2CC[C@]2(C)[C@@H]([C@H](C)CC[C@@]4(O)CCOC4)CC[C@@H]32)C1 (single isomer, unassigned) [Compound 8602]	434 nM	1050 nM				
C[C@H](CCC1(O)CCC(C(C)(C)C)CC1)[C@H]1CC[C@H]2[C@@H]3CC[C@H]4C[C@](O)(C(F)(F)F)CC[C@]4(C)[C@H]3CC[C@]12C (stereo partly drawn) [Compound 4360]			14.6%	38.1%		
CC[C@]1(O)CC[C@H]2C(=CC[C@@H]3[C@@H]2CC[C@]2(C)[C@@H]([C@H](C)CCC[C@@H](O)C(C)C)CC[C@@H]32)C1 [Compound 10114]			179%	146%		
CC[C@]1(O)CC[C@@]2(C)[C@@H](CC[C@@H]3[C@@H]2CC[C@]2(C)[C@@H]([C@H](C)CC[C@H](O)c4ccccn4)CC[C@@H]32)C1 [Compound 7032]	874 nM		63.8%	28.3%		
CC[C@H]1CC[C@](O)(CC[C@@H](C)[C@H]2CC[C@H]3[C@@H]4CC[C@H]5C[C@](O)(C(F)(F)F)CC[C@]5(C)[C@H]4CC[C@]23C)CC1 [Compound 4476]	> 10000 nM	> 10000 nM	10.4%	-3.3%		
CC(C)[C@@H](O)CC[C@@H](C)[C@H]1CC[C@H]2[C@@H]3CC[C@H]4C[C@](O)(C(F)(F)F)CC[C@]4(C)[C@H]3CC[C@]12C [Compound 2A]	339 nM			653%	158 nM	
CC[C@]1(O)CC[C@@]2(C)C(=CC[C@H]3[C@@H]4CC[C@H]([C@H](C)CC[C@H](O)c5ccccc5C#N)[C@@]4(C)CC[C@@H]32)C1 [Compound 7300]	> 10000 nM	> 10000 nM	46.9%	37.5%		
C[C@H](O)CCC[C@@H](C)[C@H]1CC[C@H]2[C@@H]3CC[C@H]4C[C@](O)(C(F)(F)F)CC[C@]4(C)[C@H]3CC[C@]12C [Compound 2113]			285%	403%		
CC[C@]1(O)CC[C@@]2(C)C(=CC[C@H]3[C@@H]4CC[C@H]([C@H](C)CC[C@H](O)c5ccccc5)[C@@]4(C)CC[C@@H]32)C1 [Compound 961]	180 nM	617 nM	97.4%	138%		
C[C@H](CC[C@](C)(O)C(F)(F)F)[C@H]1CC[C@H]2[C@@H]3CC=C4C[C@](O)(C(F)(F)F)CC[C@]4(C)[C@H]3CC[C@]12C [Compound 3035]	75.7 nM	61 nM				
CC[C@]1(O)CC[C@@]2(C)C(=CC[C@H]3[C@@H]4CC[C@H]([C@H](C)CC[C@H](O)c5ccccn5)[C@@]4(C)CC[C@@H]32)C1 [Compound 6347]	311 nM	268 nM	132%	64.7%		
CC[C@]1(O)CC[C@@]2(C)[C@@H](CC[C@@H]3[C@@H]2CC[C@]2(C)[C@@H]([C@H](C)CC[C@H](O)c4cccnc4)CC[C@@H]32)C1 [Compound 6754]			38.8%	22.3%	> 10000 nM	> 10000 nM
